This passage reports inhibition in vivo and IC50 results from patent US8134015B2, “Compound inhibiting in vivo phosphorous transport and medicine containing the same” (Kyowa Hakko Kirin Co., Ltd., priority 2003, dated 2012).

Molecules are shown by their SMILES. Where a name gives a salt, the structure may show the parent alone.

In one test the test system is SD rats. In words: Inhibitory activity against 32P absorption from intestinal tract. In kind it is in vivo. The following applies: Rattus norvegicus, oral, read-out: Blood radioactivity inhibition, %. As for the experimental part:
Pharmacological Test Example 4
Inhibitory Activity Against ^32P Absorption from Intestinal Tract
SD rats (6 to 7 weeks old, obtained from Charles River Japan, Inc. (Japan)) were raised with low-phosphorus diet (phosphorus content 0.1%, manufactured by Oriental Yeast Co., Ltd. (Japan)) for 3 to 4 days and then fasted for about 24 hr for experiment. ^32P was diluted with purified water or liquid feed (CLEA JAPAN INC. (Japan)) to 0.7 to 3.5 MBq/ml and was forcibly orally administered at a dose of 5 ml/kg (administered into the gaster through an oral probe). The compounds or media were forcibly orally administered at a dose of 5 ml/kg (divided dose of twice), 30 min before the administration of ^32P and simultaneously with the administration of ^32P. Blood was collected from caudal artery 30 min, 45 min, or 60 min after ^32P administration, and blood ^32P radioactivity was measured with a liquid scintillation counter. Inhibition of an increase in blood radioactivity was used as a measure of inhibition of phosphate absorption from the intestinal tract.
The results are expressed in terms of the percentage inhibition determined by the following equation. (Blood radioactivity for group with the administration of medium−Blood radioactivity for group with the administration of compound)/(Blood radioactivity for group with the administration of medium)×100
t-Test was used for a significant test of the average value difference of blood radioactivity.

In the next test the target is T1, rat NaPi-2b (Rattus norvegicus, UniProt Q9JJ09).
T1 construct: expressed in transfected cells; host or cells: Xenopus oocytes injected with cRNA
T1 sequence (Q9JJ09 1-695): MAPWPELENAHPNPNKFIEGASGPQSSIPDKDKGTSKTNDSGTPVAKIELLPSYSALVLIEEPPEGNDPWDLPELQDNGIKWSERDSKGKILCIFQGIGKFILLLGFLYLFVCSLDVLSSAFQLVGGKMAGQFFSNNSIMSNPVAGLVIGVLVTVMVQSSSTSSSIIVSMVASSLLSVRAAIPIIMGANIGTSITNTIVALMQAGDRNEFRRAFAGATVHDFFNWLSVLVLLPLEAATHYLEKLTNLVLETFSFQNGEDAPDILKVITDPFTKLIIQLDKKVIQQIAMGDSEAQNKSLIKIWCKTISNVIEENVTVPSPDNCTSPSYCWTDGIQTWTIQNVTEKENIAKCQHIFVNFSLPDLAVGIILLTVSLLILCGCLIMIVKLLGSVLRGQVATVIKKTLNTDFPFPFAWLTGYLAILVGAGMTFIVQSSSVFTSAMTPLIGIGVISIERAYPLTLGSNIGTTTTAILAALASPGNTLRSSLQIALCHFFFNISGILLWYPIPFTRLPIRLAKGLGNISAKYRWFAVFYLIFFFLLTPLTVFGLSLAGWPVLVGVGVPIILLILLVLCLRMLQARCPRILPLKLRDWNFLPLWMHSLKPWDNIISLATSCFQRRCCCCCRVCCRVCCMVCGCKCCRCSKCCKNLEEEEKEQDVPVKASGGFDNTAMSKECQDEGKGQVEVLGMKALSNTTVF
In words: Sodium-dependent phosphate uptake of Xenopus oocytes which expressed NaPi-2b (32P). In kind it is cell-based. The following applies: Xenopus oocytes expressing rat NaPi-2b, 32P radioactive phosphorus; read-out: IC50 (phosphate uptake inhibitory activity). In a few lines:
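Read-out is 32P phosphate uptake into Xenopus oocytes expressing rat intestinal NaPi-2b (cRNA injection, 2-day culture). Inhibition at 300 μM and 100 μM was derived from a single inhibition curve and given as percent.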

The target in another test is T2, human NaPi-2a (Homo sapiens, UniProt Q06495).
T2 construct: expressed in transfected cells
T2 sequence (Q06495 1-639): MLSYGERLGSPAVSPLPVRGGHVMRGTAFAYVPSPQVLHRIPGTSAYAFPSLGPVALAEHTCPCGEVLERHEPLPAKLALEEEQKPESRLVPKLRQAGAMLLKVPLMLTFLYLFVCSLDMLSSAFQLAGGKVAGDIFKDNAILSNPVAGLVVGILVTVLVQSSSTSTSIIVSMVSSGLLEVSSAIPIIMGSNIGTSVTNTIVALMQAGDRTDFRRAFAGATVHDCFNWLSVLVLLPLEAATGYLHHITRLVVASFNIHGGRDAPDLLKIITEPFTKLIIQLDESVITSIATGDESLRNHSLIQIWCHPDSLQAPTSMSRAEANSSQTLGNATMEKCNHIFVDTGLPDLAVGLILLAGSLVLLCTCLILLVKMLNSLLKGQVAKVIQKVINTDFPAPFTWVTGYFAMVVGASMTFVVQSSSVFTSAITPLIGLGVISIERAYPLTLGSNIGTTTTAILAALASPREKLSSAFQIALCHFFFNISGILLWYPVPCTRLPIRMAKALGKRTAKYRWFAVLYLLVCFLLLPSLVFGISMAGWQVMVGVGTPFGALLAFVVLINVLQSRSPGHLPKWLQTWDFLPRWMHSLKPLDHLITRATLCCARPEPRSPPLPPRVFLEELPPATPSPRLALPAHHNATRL
The test can be described thus: Sodium-dependent phosphate uptake of Xenopus oocytes which expressed NaPi-2a (32P). In kind it is cell-based. The following applies: phosphate uptake, Xenopus oocytes expressing human NaPi-2a; five concentration levels. From the text:
Experiment of Sodium-Dependent Phosphate Uptake of Xenopus oocytes which Expressed NaPi-2a
In the test, a group with the addition of choline chloride (Choline Cl) was used as a negative control for nonspecific uptake, and PFA (phosphonoformic acid) was used as a positive control for phosphate transport inhibition.

For the compound `COc1ccc(C(=O)Nc2ccc(Cl)cc2C(=O)N/N=C/c2ccc(Cl)c(C(F)(F)F)c2)cc1OC` [Compound 88, N-[4-Chloro-2-(4-chloro-3-trifluoromethyl-benzylidene-hydrazinocarbonyl)-phenyl]-3,4-dimethoxy-benzamide], in the test with SD rats, the inhibition in vivo at 400 mg/kg was found to be 29.1%. On rat NaPi-2b, the concentration for half-maximal inhibition (IC50) came to 220 nM.
Take `COc1ccc(C(=O)Nc2ccc(Br)cc2C(=O)N/N=C/c2ccc(C)c(C)c2)cc1OC` [Compound 91, N-[4-Bromo-2-(3,4-dimethyl-benzylidene-hydrazinocarbonyl)-phenyl]-3,4-dimethoxy-benzamide]: the inhibition in vivo at 320 mg/kg with SD rats was 28.3%. On rat NaPi-2b, the half-maximal inhibitory concentration (IC50) worked out at 220 nM.
On to `COc1ccc(C(=O)Nc2ccc(Cl)cc2C(=O)N/N=C/c2ccc(C)c(C)c2)cc1OC` [Compound 92, N-[4-Chloro-2-(3,4-dimethyl-benzylidene-hydrazinocarbonyl)-phenyl]-3,4-dimethoxy-benzamide], for which the inhibition in vivo at 160 mg/kg in the test on SD rats (dose 160 mg/kg) came to 25.5%. The IC50 at rat NaPi-2b was 260 nM.
Turning to `O=C(Nc1ccccc1C(=O)N/N=C/c1ccc(F)cc1)c1cccnc1` [Compound 130, N-[2-(4-Fluoro-benzylidene-hydrazinocarbonyl)-phenyl]-nicotinamide], in the test on SD rats (dose 270 mg/kg), the inhibition in vivo at 270 mg/kg worked out at 22.8%. The IC50 on rat NaPi-2b came out at 11400 nM.
Take `O=C(Nc1ccc(Br)cc1C(=O)N/N=C/c1cccc(F)c1)c1cccs1` [Compound 157, Thiophene-2-carboxylic acid [4-bromo-2-(3-fluoro-benzylidene-hydrazinocarbonyl)-phenyl]-amide]: in the test with SD rats, the inhibition in vivo at 320 mg/kg was 20.7%. Moreover, the IC50 on rat NaPi-2b came out at 7190 nM.
Consider `Cc1ccc(/C=N/NC(=O)c2ccccc2NC(=O)c2ccncc2)cc1C` [Compound 163, N-[2-(3,4-Dimethyl-benzylidene-hydrazinocarbonyl)-phenyl]-isonicotinamide hydrochloride], for which the inhibition in vivo at 360 mg/kg in the test on SD rats (dose 360 mg/kg) came to 57.8%. Also, the IC50 at rat NaPi-2b worked out at 1600 nM.
As for `Cc1ccc(/C=N/NC(=O)c2ccccc2NC(=O)c2cccnc2)cc1` [Compound 164, N-[2-(4-Methyl-benzylidene-hydrazinocarbonyl)-phenyl]-nicotinamide hydrochloride], in the test with SD rats, the inhibition in vivo at 400 mg/kg is 55%. Besides, at rat NaPi-2b, the IC50 is 4760 nM.
On to `Cc1ccc(/C=N/NC(=O)c2ccccc2NC(=O)c2cccnc2)cc1C` [Compound 165, N-[2-(3,4-Dimethyl-benzylidene-hydrazinocarbonyl)-phenyl]-nicotinamide hydrochloride], for which the inhibition in vivo at 400 mg/kg in the test on SD rats was 27.6%. For the same compound, the IC50 on rat NaPi-2b is 2430 nM.
The corresponding values for `Cc1ccc(/C=N/NC(=O)c2cc(Br)ccc2NC(=O)c2cccnc2)cc1` [Compound 252, N-[4-Bromo-2-(4-methyl-benzylidene-hydrazinocarbonyl)-phenyl]-nicotinamide hydrochloride] are 29.2% and 1490 nM.
Take `Cc1cccc(/C=N/NC(=O)c2ccccc2NC(=O)c2ccncc2)c1` [Compound 253, N-[2-(3-Methyl-benzylidene-hydrazinocarbonyl)-phenyl]-isonicotinamide hydrochloride]: in the test on SD rats, the inhibition in vivo at 400 mg/kg turned out to be 39%. Also, the IC50 on rat NaPi-2b is 3470 nM.
For the compound `CCN(CC)CCN(C)Cc1ccc(C(=O)Nc2ccc(Br)cc2C(=O)N/N=C/c2ccc(C)cc2)cc1` [Compound 285, N-[4-Bromo-2-(4-methyl-benzylidene-hydrazinocarbonyl)-phenyl]-4-{[(2-diethylamino-ethyl)-methyl-amino]-methyl}-benzamide], in the test on SD rats (dose 80 mg/kg), the inhibition in vivo at 80 mg/kg was determined as 60.3%. For the same compound, the IC50 on rat NaPi-2b is 900 nM.
`COc1cccc(/C=N/NC(=O)c2cc(Br)ccc2NC(=O)c2ccc(CN3CCC(N4CCCCC4)CC3)cc2)c1` [Compound 315, 4-[1,4′]Bipiperidinyl-1′-ylmethyl-N-[4-bromo-2-(3-methoxy-benzylidene-hydrazinocarbonyl)-phenyl]-benzamide]: the inhibition in vivo at 100 mg/kg with SD rats came out at 42.4%. Besides, at rat NaPi-2b, the IC50 stood at 9020 nM.
The matching figures for `Cc1ccc(/C=N/NC(=O)c2cc(Cl)ccc2NC(=O)c2cccc(CN3CCC(N4CCCCC4)CC3)c2)cc1C` [Compound 372, 3-[1,4′]Bipiperidinyl-1′-ylmethyl-N-[4-chloro-2-(3,4-dimethyl-benzylidene-hydrazinocarbonyl)-phenyl]-benzamide]: 63.7% and 800 nM.
Regarding `Cc1ccc(/C=N/NC(=O)c2cc(Cl)ccc2NC(=O)c2cccc(CSCC(O)CO)c2)cc1` (stereo not shown) [Compound 1008, N-[4-Chloro-2-(4-methyl-benzylidene-hydrazinocarbonyl)-phenyl]-3-(2,3-dihydroxy-propylsulfanylmethyl)-benzamide], the IC50 at human NaPi-2a stood at 2300 nM; at rat NaPi-2b, 300 nM.
The corresponding values for `Cc1ccc(/C=N/NC(=O)c2cc(Cl)ccc2NC(=O)c2cccc(CSCC(O)CO)c2)cc1C` (stereo not shown) [Compound 1009, N-[4-Chloro-2-(3,4-dimethyl-benzylidene-hydrazinocarbonyl)-phenyl]-3-(2,3-dihydroxy-propylsulfanylmethyl)-benzamide] are 1410 nM and 100 nM.
The corresponding values for `COc1ccc(NC(=O)c2cccc(CSCC(O)CO)c2)c(C(=O)N/N=C/c2ccc(Cl)c(C(F)(F)F)c2)c1` (stereo not shown) [Compound 1020, N-[2-(4-Chloro-3-trifluoromethyl-benzylidene-hydrazinocarbonyl)-4-methoxy-phenyl]-3-(2,3-dihydroxy-propylsulfanyl-methyl)-benzamide] are 2250 nM and 390 nM.
Take `CCN(CC)CCN(C)Cc1cccc(C(=O)Nc2ccc(OCCOC)cc2C(=O)N/N=C/c2ccc(Cl)c(C(F)(F)F)c2)c1` [Compound 1027, N-[2-(4-Chloro-3-trifluoromethyl-benzylidene-hydrazinocarbonyl)-4-(2-methoxy-ethoxy)-phenyl]-3-{[(2-diethylamino-ethyl)-methyl-amino]-methyl}-benzamide]: the IC50 against human NaPi-2a was 1580 nM; on rat NaPi-2b, 1200 nM.
